Results as given in ChEMBL document CHEMBL3217415, “(Pd/C-mediated)couplingiodocyclizationcoupling strategy in discovery of novel PDE4 inhibitors: a new synthesis of pyrazolopyrimidines” (Medchemcomm, 2012).
Active and inactive are the calls of the source. No cut-off for these calls is given here.

Key:
Danio rerio [1] = species: Danio rerio; experiment: Toxicity in zebrafish embryo assessed as mortality at 10 to 20 uM after 1 to 24 hrs; assay type: organism-based; details: in vivo
[2] = target: T1, 3',5'-cyclic-AMP phosphodiesterase 4B (Homo sapiens, UniProt Q07343); experiment: Inhibition of His-tagged recombinant human PDE4B1 expressed in baculovirus infected sf9 cells using cAMP as substrate preincubated for 15 mins followed by substrate addition measured after 1 hr by luminescence assay
T1 sequence (Q07343 whole entry): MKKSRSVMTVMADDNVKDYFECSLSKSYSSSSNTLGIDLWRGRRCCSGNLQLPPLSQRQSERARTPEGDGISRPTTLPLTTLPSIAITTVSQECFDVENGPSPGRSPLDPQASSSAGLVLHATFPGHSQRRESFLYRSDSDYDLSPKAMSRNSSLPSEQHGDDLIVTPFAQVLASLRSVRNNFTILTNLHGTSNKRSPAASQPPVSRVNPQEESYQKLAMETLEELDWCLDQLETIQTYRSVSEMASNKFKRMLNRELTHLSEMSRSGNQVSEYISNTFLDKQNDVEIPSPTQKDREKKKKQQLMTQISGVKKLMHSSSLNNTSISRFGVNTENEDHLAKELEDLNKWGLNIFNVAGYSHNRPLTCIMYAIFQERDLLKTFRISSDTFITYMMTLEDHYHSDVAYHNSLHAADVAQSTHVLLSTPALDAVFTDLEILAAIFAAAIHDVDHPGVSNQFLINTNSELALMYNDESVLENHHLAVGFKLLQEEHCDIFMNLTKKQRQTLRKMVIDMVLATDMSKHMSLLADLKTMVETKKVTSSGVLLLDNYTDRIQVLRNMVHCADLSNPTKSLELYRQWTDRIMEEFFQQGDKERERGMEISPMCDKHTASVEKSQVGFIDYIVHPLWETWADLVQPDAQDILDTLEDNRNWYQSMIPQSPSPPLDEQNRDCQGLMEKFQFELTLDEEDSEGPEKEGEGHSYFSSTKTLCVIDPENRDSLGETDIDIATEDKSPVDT

[3] = target: T2, 3',5'-cyclic-AMP phosphodiesterase 4D (Homo sapiens, UniProt Q08499); experiment: Inhibition of PDE4D3 (unknown origin) transfected in HEK293 cells assessed as forskolin-induced cAMP accumulation pretreated for 30 mins before forskolin challenge by luciferase reporter gene assay; assay type: cell-based
T2 sequence (Q08499 whole entry): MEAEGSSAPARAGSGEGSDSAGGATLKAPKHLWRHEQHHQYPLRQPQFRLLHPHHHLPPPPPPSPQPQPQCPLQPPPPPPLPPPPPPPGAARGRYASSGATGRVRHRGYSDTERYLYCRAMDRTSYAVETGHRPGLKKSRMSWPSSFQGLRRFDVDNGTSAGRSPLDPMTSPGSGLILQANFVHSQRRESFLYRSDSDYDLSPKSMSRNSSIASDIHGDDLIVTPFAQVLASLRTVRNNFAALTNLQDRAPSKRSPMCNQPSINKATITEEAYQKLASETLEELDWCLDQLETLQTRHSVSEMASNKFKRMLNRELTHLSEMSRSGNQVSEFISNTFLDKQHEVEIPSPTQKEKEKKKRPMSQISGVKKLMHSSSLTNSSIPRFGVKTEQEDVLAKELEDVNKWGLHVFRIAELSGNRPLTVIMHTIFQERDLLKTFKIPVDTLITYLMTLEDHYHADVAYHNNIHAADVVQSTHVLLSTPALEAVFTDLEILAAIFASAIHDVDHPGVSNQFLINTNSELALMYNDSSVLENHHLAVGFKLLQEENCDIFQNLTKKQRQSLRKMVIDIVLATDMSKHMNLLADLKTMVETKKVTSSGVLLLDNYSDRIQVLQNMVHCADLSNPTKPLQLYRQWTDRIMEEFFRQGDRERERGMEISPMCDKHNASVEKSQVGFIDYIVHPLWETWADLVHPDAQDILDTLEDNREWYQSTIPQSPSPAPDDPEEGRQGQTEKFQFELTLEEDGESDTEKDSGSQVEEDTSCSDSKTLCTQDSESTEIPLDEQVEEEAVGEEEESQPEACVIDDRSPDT

[4] = target: T1, 3',5'-cyclic-AMP phosphodiesterase 4B; experiment: Inhibition of PDE4B1 (unknown origin) transfected in HEK293 cells assessed as forskolin-induced cAMP accumulation pretreated for 30 mins before forskolin challenge by luciferase reporter gene assay; assay type: cell-based
Danio rerio [5] = species: Danio rerio; experiment: Toxicity in zebrafish embryo assessed as effect on locomotory activity at 10 uM after 6 hrs; assay type: organism-based; details: in vivo
RAW264.7 = experiment: Inhibition of LPS-induced TNFalpha production in mouse RAW264.7 cells pretreated for 30 mins before LPS challenge by ELISA assay; assay type: functional, cell-based
Danio rerio [6] = species: Danio rerio; experiment: Toxicity in zebrafish embryo assessed as effect on locomotory activity at 20 uM after 24 hrs; assay type: organism-based; details: in vivo
[7] = target: T1, 3',5'-cyclic-AMP phosphodiesterase 4B; experiment: Inhibition of His-tagged recombinant human PDE4B expressed in baculovirus infected sf9 cells using cAMP as substrate at 30 uM preincubated for 15 mins followed by substrate addition measured after 1 hr by luminescence assay
Danio rerio [8] = species: Danio rerio; experiment: Toxicity in zebrafish embryo assessed as increase in abnormal lesions at 10 to 20 uM after 24 hrs; assay type: organism-based; details: in vivo
[9] = target: 3',5'-cyclic-AMP phosphodiesterase 4A (Homo sapiens, UniProt P27815); experiment: Inhibition of PDE4A4 (unknown origin) transfected in HEK293 cells assessed as forskolin-induced cAMP accumulation pretreated for 30 mins before forskolin challenge by luciferase reporter gene assay; assay type: cell-based
3',5'-cyclic-AMP phosphodiesterase 4A, sequence (P27815 whole entry): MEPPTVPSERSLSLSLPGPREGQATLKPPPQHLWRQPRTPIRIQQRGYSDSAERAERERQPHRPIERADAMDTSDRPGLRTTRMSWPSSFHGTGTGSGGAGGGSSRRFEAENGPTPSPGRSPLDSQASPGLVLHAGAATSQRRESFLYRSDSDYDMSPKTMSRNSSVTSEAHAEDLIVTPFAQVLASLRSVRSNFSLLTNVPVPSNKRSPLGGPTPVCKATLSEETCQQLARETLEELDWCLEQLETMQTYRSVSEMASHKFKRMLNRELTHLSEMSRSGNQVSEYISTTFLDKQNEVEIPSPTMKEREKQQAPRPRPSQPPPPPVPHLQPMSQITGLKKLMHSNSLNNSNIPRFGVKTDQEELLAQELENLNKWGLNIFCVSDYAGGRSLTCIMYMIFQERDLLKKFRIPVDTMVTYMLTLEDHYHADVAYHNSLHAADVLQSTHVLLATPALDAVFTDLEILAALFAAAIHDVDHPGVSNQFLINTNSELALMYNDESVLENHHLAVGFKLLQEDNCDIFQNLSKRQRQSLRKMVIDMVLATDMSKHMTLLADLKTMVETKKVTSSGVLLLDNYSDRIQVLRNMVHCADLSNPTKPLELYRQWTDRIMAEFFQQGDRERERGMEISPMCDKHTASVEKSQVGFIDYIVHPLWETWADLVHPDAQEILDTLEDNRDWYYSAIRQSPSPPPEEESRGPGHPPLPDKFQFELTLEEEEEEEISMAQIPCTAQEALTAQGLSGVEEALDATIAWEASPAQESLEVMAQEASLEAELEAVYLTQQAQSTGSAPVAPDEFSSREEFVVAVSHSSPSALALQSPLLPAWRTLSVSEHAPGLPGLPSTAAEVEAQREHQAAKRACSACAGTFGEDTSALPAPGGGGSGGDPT

[10] = target: T2, 3',5'-cyclic-AMP phosphodiesterase 4D; experiment: Inhibition of human PDE4D2 using cAMP substrate preincubated for 15 mins followed by substrate addition measured after 1 hr by luminescence assay
Danio rerio [11] = species: Danio rerio; experiment: Toxicity in zebrafish embryo assessed as cardiac arrhythmia at 10 to 20 uM after 24 hrs by compound microscopy; assay type: organism-based, Heart; details: in vivo
Danio rerio [12] = species: Danio rerio; experiment: Toxicity in zebrafish embryo assessed as mortality at 100 uM after 1 to 24 hrs; assay type: organism-based; details: in vivo
Danio rerio [13] = species: Danio rerio; experiment: Toxicity in zebrafish embryo assessed as effect on locomotory activity at 100 uM; assay type: organism-based; details: in vivo
Danio rerio [14] = species: Danio rerio; experiment: Toxicity in zebrafish embryo assessed as lordosis at 10 to 20 uM after 1 to 24 hrs; assay type: organism-based; details: in vivo
Danio rerio [15] = species: Danio rerio; experiment: Toxicity in zebrafish embryo assessed as effect on locomotory activity at 10 to 20 uM after 1 to 24 hrs; assay type: organism-based; details: in vivo

NC(=O)c1cccc(-c2c(-c3ccccc3)oc(=O)c3c2nn2c(-c4ccccc4)ccnc32)c1
Activity (Danio rerio [1]): Non-toxic | IC50 [2]: 1.33 µM | EC50 [3]: 9.62 µM | EC50 [4]: 6.32 µM | Activity (Danio rerio [5]): Toxic | IC50 (RAW264.7): 0.45 µM | Activity (Danio rerio [6]): Non-toxic | inhibition [7]: 93% | Activity (Danio rerio [8]): Non-toxic | EC50 [9]: 11.7 µM | IC50 [10]: 2.84 µM | Activity (Danio rerio [11]): Non-toxic

CCCCCC#Cc1c(CCCCCC)oc(=O)c2c1nn1c(-c3ccccc3)ccnc21
inhibition [7]: 50%

O=c1oc(-c2ccccc2)c(-c2ccc(F)cc2)c2nn3c(-c4ccccc4)ccnc3c12
inhibition [7]: 66%

CCCCCCc1oc(=O)c2c(nn3c(-c4ccccc4)ccnc23)c1/C=C/C(=O)OCC
inhibition [7]: inactive

CC(C)(C)c1ccc(C(O)CCCN2CCC(C(O)(c3ccccc3)c3ccccc3)CC2)cc1 (stereo not drawn) [TERFENADINE]
Activity (Danio rerio [12]): Toxic | Activity (Danio rerio [13]): Toxic

O=c1oc(-c2ccccc2)c(-c2cccc([N+](=O)[O-])c2)c2nn3c(-c4ccccc4)ccnc3c12
inhibition [7]: 74%

O=c1oc(-c2ccccc2)c(-c2cnc3ccccc3c2)c2nn3c(-c4ccccc4)ccnc3c12
inhibition [7]: 74%

CCCCCCc1oc(=O)c2c(nn3c(-c4ccccc4)ccnc23)c1/C=C/C(=O)OC(C)(C)C
inhibition [7]: inactive

COc1ccc(C2CNC(=O)C2)cc1OC1CCCC1 (stereo not drawn) [ROLIPRAM]
Activity (Danio rerio [1]): Toxic | Activity (Danio rerio [14]): Toxic | IC50 (RAW264.7): 0.19 µM | Activity (Danio rerio [8]): Toxic | Activity (Danio rerio [11]): Non-toxic | Activity (Danio rerio [15]): Toxic

CCCCCC#Cc1c(-c2ccccc2)oc(=O)c2c1nn1c(-c3ccccc3)ccnc21
inhibition [7]: 50%

CCCCCCc1oc(=O)c2c(nn3c(-c4ccccc4)ccnc23)c1-c1cccc(C(N)=O)c1
inhibition [7]: 85%
